Data from the supplement of paper PMC4862054.

Legend:
Assay in all cases: normalised viability (% of control), CellTiter-Blue; higher = more viable cells (about 100 = DMSO control)
Details in all cases: incubation time: 72 h
[1] = system: BT-549
Outline: (§1)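 After 72 h on compound-loaded 384-well plates, breast cancer cell lines received 2.5 µl CellTiter-Blue reagent for 2 h at 37 °C. Fluorescence at 560/590 nm was scaled per plate so that vehicle was 100 and a positive kill control was 0. The value stands for normalised viability at a single listed concentration of the series.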

[2] = system: BT-474
Outline: as §1

[3] = system: SK-BR-3
Outline: as §1

[4] = system: Hs578T
Outline: as §1

[5] = system: HCC1143
Outline: as §1

[6] = system: MDA-MB-468
Outline: as §1

[7] = system: HCC1599
Outline: as §1

[8] = system: CAL-148
Outline: as §1

[9] = system: MDA-MB-453
Outline: as §1

[10] = system: CAL-85-1
Outline: as §1

[11] = system: HDQ-P1
Outline: as §1

[12] = system: HCC1937
Outline: as §1

[13] = system: MFM-223
Outline: as §1

[14] = system: DU-4475
Outline: as §1

[15] = system: CAL-51
Outline: as §1

[16] = system: CAL-120
Outline: as §1

[17] = system: MDA-MB-231
Outline: as §1

[18] = system: MDA-MB-436
Outline: as §1

[19] = system: Hs578T; remark: listed apart in the source
Outline: as §1

[20] = system: MDA-MB-468; remark: listed apart in the source
Outline: as §1

[21] = system: HCC1599; remark: listed apart in the source
Outline: as §1

[22] = system: CAL-148; remark: listed apart in the source
Outline: as §1

[23] = system: CAL-85-1; remark: listed apart in the source
Outline: as §1

[24] = system: HDQ-P1; remark: listed apart in the source
Outline: as §1

[25] = system: CAL-51; remark: listed apart in the source
Outline: as §1

[26] = system: CAL-120; remark: listed apart in the source
Outline: as §1

[27] = system: MDA-MB-436; remark: listed apart in the source
Outline: as §1

O=C1c2c(O)ccc(O)c2C(=O)c2c(NCCNCCO)ccc(NCCNCCO)c21 [Mitoxantrone]
Details	normalised viability [%]
[1], 1 nM	82.4
[1], 100 nM	69
[1], 1000 nM	35.4
[2], 1 nM	99.4
[2], 100 nM	71.1
[2], 1000 nM	42
[3], 1 nM	84.2
[3], 100 nM	34.6
[3], 1000 nM	14.8
[4], 1 nM	91.6
[4], 100 nM	77.5
[4], 1000 nM	38.4
[5], 1 nM	83.4
[5], 100 nM	56.6
[5], 1000 nM	31.2
[6], 1 nM	97.1
[6], 100 nM	57.3
[6], 1000 nM	37.4
[7], 1 nM	97.6
[7], 100 nM	73.3
[7], 1000 nM	69.8
[8], 0.3 nM	91.2
[8], 3 nM	91.5
[8], 10 nM	57.9
[9], 0.3 nM	98.7
[9], 3 nM	87.1
[9], 10 nM	74
[10], 0.3 nM	90.3
[10], 3 nM	84.3
[10], 10 nM	86.5
[11], 0.3 nM	74.8
[11], 3 nM	86.7
[11], 10 nM	79.2
[12], 1 nM	65.7
[12], 100 nM	25
[12], 1000 nM	23.7
[13], 1 nM	73.8
[13], 100 nM	84.4
[13], 1000 nM	35.2
[14], 0.3 nM	89
[14], 3 nM	91.3
[14], 10 nM	45.8
[15], 0.3 nM	112
[15], 3 nM	111
[15], 10 nM	61.3
[16], 1 nM	73.8
[16], 100 nM	44.6
[16], 1000 nM	17.3
[17], 1 nM	82
[17], 100 nM	44.2
[17], 1000 nM	17.4
[18], 1 nM	87.2
[18], 100 nM	88.3
[18], 1000 nM	40.1
[19], 10 nM	71.8
[20], 10 nM	80.4
[21], 10 nM	108
[22], 1 nM	94.3
[23], 1 nM	95.1
[24], 1 nM	95
[25], 1 nM	104
[26], 10 nM	67.4
[27], 10 nM	99.6

Nc1ccccc1NC(=O)c1ccc(CNc2nccc(-c3cccnc3)n2)cc1 [Mocetinostat]
Details	normalised viability [%]
[1], 10 nM	91
[1], 1000 nM	67.1
[1], 10000 nM	35.9
[2], 10 nM	113
[2], 1000 nM	96.8
[2], 10000 nM	25.6
[3], 10 nM	101
[3], 1000 nM	55.5
[3], 10000 nM	3.29
[4], 10 nM	96.8
[4], 1000 nM	81.4
[4], 10000 nM	12.6
[5], 10 nM	78.5
[5], 1000 nM	67
[5], 10000 nM	16.7
[6], 10 nM	109
[6], 1000 nM	84.8
[6], 10000 nM	8.4
[7], 10 nM	102
[7], 1000 nM	54.6
[7], 10000 nM	23.5
[8], 3 nM	89.2
[8], 30 nM	93.7
[8], 100 nM	99.8
[9], 3 nM	116
[9], 30 nM	96.1
[9], 100 nM	87.5
[10], 3 nM	93.3
[10], 30 nM	82
[10], 100 nM	86.9
[11], 3 nM	108
[11], 30 nM	119
[11], 100 nM	74
[12], 10 nM	84.4
[12], 1000 nM	70.4
[12], 10000 nM	21.4
[13], 10 nM	88
[13], 1000 nM	80.9
[13], 10000 nM	31.6
[14], 3 nM	97.2
[14], 30 nM	98.5
[14], 100 nM	103
[15], 3 nM	106
[15], 30 nM	96.9
[15], 100 nM	97.7
[16], 10 nM	74.8
[16], 1000 nM	40.5
[16], 10000 nM	18.1
[17], 10 nM	85.7
[17], 1000 nM	75.7
[17], 10000 nM	22.4
[18], 10 nM	94
[18], 1000 nM	61.2
[18], 10000 nM	28.9
[19], 100 nM	80.8
[20], 100 nM	129
[21], 100 nM	86.9
[22], 10 nM	111
[23], 10 nM	91.2
[24], 10 nM	117
[25], 10 nM	98.2
[26], 100 nM	53.6
[27], 100 nM	81.2
